Laboratory results reported in article PMC12340639 (ACS Pharmacology & Translational Science, 2025).

Tested on: ER-positive MCF7 human breast cancer cells
Test: MCF7 cell proliferation assay
Type: cell-based
Settings: MCF7, 120 h, read-out: Cell Proliferation EC50

In the case of `C[C@]12CC[C@@H]3c4ccc(O)cc4CC[C@H]3[C@@H]1CC[C@@H]2O` [E2, 17β-estradiol], the EC50 is reported as 3.2 pM.
